In patent US9169254B2, “Spiroimidazolone derivative” (Chugai Seiyaku Kabushiki Kaisha, priority 2009, dated 2015):

Target: T1, human PTH1 receptor (Homo sapiens, UniProt Q03431)
T1 sequence (Q03431 27-593): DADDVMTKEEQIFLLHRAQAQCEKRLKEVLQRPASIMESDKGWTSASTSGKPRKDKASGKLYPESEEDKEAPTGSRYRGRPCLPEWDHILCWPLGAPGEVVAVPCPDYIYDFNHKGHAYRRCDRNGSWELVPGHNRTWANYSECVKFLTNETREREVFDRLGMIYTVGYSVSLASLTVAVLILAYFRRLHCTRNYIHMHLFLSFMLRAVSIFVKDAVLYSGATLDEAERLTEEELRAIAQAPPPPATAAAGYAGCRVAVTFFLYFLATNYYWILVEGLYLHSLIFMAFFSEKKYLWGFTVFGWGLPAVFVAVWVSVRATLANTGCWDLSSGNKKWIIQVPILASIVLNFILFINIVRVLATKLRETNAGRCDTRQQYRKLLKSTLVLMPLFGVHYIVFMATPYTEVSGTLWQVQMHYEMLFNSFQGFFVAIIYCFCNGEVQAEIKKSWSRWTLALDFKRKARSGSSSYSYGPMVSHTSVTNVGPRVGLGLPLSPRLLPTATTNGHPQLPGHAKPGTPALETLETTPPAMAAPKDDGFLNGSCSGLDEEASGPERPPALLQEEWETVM
Test: In vitro cAMP signal activity in HKRK-B7 cells (LLC-PK1 cells overexpressing the human PTH1 receptor)
Format: cell-based
Settings: HKRK-B7 cells; compound at 1×10^−3 M; cAMP produced as percentage of that produced by hPTH(1-34) at 100 nM

| cAMP production activity (%) | Structure (SMILES) |
| --- | --- |
| 76% | Cc1cc(N(C)C(N)=O)cc(C)c1/C=C/S(=O)(=O)N1CCC2(CC1)N=C(CCCCCCCCCCCN)NC2=O [Compound 1315, 1-(4-{(E)-2-[2-(11-Amino-undecyl)-4-oxo-1,3,8-triaza-spiro[4.5]dec-1-ene-8-sulfonyl]-vinyl}-3,5-dimethyl-phenyl)-1-methyl-urea] |
| 2.9% | CCC[S+]([O-])CCCCCC1=NC2(CCN(S(=O)(=O)/C=C/c3c(C)cc(N(C)C(N)=O)cc3C)CC2)C(=O)N1 (stereo not drawn) [Compound 1316, 1-[3,5-Dimethyl-4-((E)-2-{4-oxo-2-[5-(propane-1-sulfinyl)-pentyl]-1,3,8-triaza-spiro[4.5]dec-1-ene-8-sulfonyl}-vinyl)-phenyl]-1-methyl-urea] |
| 3.4% | CC[S+]([O-])CCCCCCC1=NC2(CCN(S(=O)(=O)CCc3c(C)cc(N(C)C(N)=O)cc3C)CC2)C(=O)N1 (stereo not drawn) [Compound 1317, 1-(4-{2-[2-(6-ethanesulfinyl-hexyl)-4-oxo-1,3,8-triaza-spiro[4.5]dec-1-ene-8-sulfonyl]-ethyl}-3,5-dimethyl-phenyl)-1-methyl-urea] |
| 19% | CCCS(=O)(=O)CCCCCC1=NC2(CCN(S(=O)(=O)/C=C/c3c(C)cc(N(C)C(N)=O)cc3C)CC2)C(=O)N1 [Compound 1318, 1-[3,5-Dimethyl-4-((E)-2-{4-oxo-2-[5-(propane-1-sulfonyl)-pentyl]-1,3,8-triaza-spiro[4.5]dec-1-ene-8-sulfonyl}-vinyl)-phenyl]-1-methyl-urea] |
| 5.8% | Cc1cc(N(C)C(N)=O)cc(C)c1/C=C/S(=O)(=O)N1CCC2(CC1)N=C(CCCCCCCS(C)(=O)=O)NC2=O [Compound 1319, 1-(4-{(E)-2-[2-(7-methanesulfonyl-heptyl)-4-oxo-1,3,8-triaza-spiro[4.5]dec-1-ene-8-sulfonyl]-vinyl}-3,5-dimethyl-phenyl)-1-methyl-urea] |
| 10% | CCS(=O)(=O)CCCCCCC1=NC2(CCN(S(=O)(=O)CCc3c(C)cc(N(C)C(N)=O)cc3C)CC2)C(=O)N1 [Compound 1320, 1-(4-{2-[2-(6-ethanesulfonyl-hexyl)-4-oxo-1,3,8-triaza-spiro[4.5]dec-1-ene-8-sulfonyl]-ethyl}-3,5-dimethyl-phenyl)-1-methyl-urea] |
| 63% | Cc1cc(N(C)C(N)=O)cc(C)c1/C=C/S(=O)(=O)N1CCC2(CC1)N=C(CCCCCCCCC(F)F)NC2=O [Compound 1321, 1-(4-{(E)-2-[2-(9,9-Difluoro-nonyl)-4-oxo-1,3,8-triaza-spiro[4.5]dec-1-ene-8-sulfonyl]-vinyl}-3,5-dimethyl-phenyl)-1-methyl-urea] |
| 80% | Cc1cc(N(C)C(N)=O)cc(C)c1CCS(=O)(=O)N1CCC2(CC1)N=C(CCCCCCCCCO)NC2=O [Compound 1322, 1-(4-{2-[2-(9-Hydroxy-nonyl)-4-oxo-1,3,8-triaza-spiro[4.5]dec-1-ene-8-sulfonyl]-ethyl}-3,5-dimethyl-phenyl)-1-methyl-urea] |
| 78% | Cc1cc(N(C)C(N)=O)cc(C)c1CCS(=O)(=O)N1CCC2(CC1)N=C(CCCCCCCCC(F)F)NC2=O [Compound 1323, 1-(4-{2-[2-(9,9-Difluoro-nonyl)-4-oxo-1,3,8-triaza-spiro[4.5]dec-1-ene-8-sulfonyl]-ethyl}-3,5-dimethyl-phenyl)-1-methyl-urea] |
| 1.0% | Cc1cc(N(C)C(N)=O)cc(C)c1CCS(=O)(=O)N1CCC2(CC1)N=C(CCCCCCCCCN)NC2=O [Compound 1324, 1-(4-{2-[2-(9-Amino-nonyl)-4-oxo-1,3,8-triaza-spiro[4.5]dec-1-ene-8-sulfonyl]-ethyl}-3,5-dimethyl-phenyl)-1-methyl-urea] |
| 113% | Cc1cc(N(C)C(N)=O)cc(C)c1/C=C/S(=O)(=O)N1CCC2(CC1)N=C(CCCCCCCCCF)NC2=O [Compound 1325, 1-(4-{(E)-2-[2-(9-Fluoro-nonyl)-4-oxo-1,3,8-triaza-spiro[4.5]dec-1-ene-8-sulfonyl]-vinyl}-3,5-dimethyl-phenyl)-1-methyl-urea] |
| 84% | Cc1cc(N(C)C(N)=O)cc(C)c1/C=C\S(=O)(=O)N1CCC2(CC1)N=C(CCCCCCCCCF)NC2=O [Compound 1326, 1-(4-{(Z)-2-[2-(9-fluoro-nonyl)-4-oxo-1,3,8-triaza-spiro[4.5]dec-1-ene-8-sulfonyl]-vinyl}-3,5-dimethyl-phenyl)-1-methyl-urea] |
| 92% | Cc1cc(N(C)C(N)=O)cc(C)c1CCS(=O)(=O)N1CCC2(CC1)N=C(CCCCCCCCCF)NC2=O [Compound 1327, 1-(4-{2-[2-(9-Fluoro-nonyl)-4-oxo-1,3,8-triaza-spiro[4.5]dec-1-ene-8-sulfonyl]-ethyl}-3,5-dimethyl-phenyl)-1-methyl-urea] |
| 93% | Cc1cc(OC[C@H](O)CO)cc(C)c1CCS(=O)(=O)N1CCC2(CC1)N=C(c1cccc(OCCCC(F)(F)C(F)(F)F)c1)NC2=O [Compound 1328, 8-{2-[4-((R)-2,3-Dihydroxy-propoxy)-2,6-dimethyl-phenyl]-ethanesulfonyl}-2-[3-(4,4,5,5,5-pentafluoro-pentyloxy)-phenyl]-1,3,8-triaza-spiro[4.5]dec-1-en-4-one] |
| 85% | Cc1cc(OC[C@H](O)CO)cc(C)c1CCS(=O)(=O)N1CCC2(CC1)N=C(c1ccc(F)c(OC(F)(F)F)c1)NC2=O [Compound 1329, 8-{2-[4-((R)-2,3-dihydroxy-propoxy)-2,6-dimethyl-phenyl]-ethanesulfonyl}-2-(4-fluoro-3-trifluoromethoxy-phenyl)-1,3,8-triaza-spiro[4.5]dec-1-en-4-one] |
| 9.2% | Cc1cc(OC[C@H](O)CO)cc(C)c1CCS(=O)(=O)N1CCC2(CC1)N=C(c1ccc3c(c1)OC(F)(F)O3)NC2=O [Compound 1330, 2-(2,2-difluoro-benzo[1,3]dioxol-5-yl)-8-{2-[4-((R)-2,3-dihydroxy-propoxy)-2,6-dimethyl-phenyl]-ethanesulfonyl}-1,3,8-triaza-spiro[4.5]dec-1-en-4-one] |
| 109% | Cc1cc(C(=O)N2CCC(O)CC2)cc(C)c1CCS(=O)(=O)N1CCC2(CC1)N=C(c1ccc3c(c1)OC(F)(F)O3)NC2=O [Compound 1333, 2-(2,2-difluoro-benzo[1,3]dioxol-5-yl)-8-{2-[4-(4-hydroxy-piperidine-1-carbonyl)-2,6-dimethyl-phenyl]-ethanesulfonyl}-1,3,8-triaza-spiro[4.5]dec-1-en-4-one] |
| 116% | Cc1cc(C(=O)N2CCC(O)CC2)cc(C)c1CCS(=O)(=O)N1CCC2(CC1)N=C(c1ccc(F)c(OC(F)(F)F)c1)NC2=O [Compound 1334, 2-(4-fluoro-3-trifluoromethoxy-phenyl)-8-{2-[4-(4-hydroxy-piperidine-1-carbonyl)-2,6-dimethyl-phenyl]-ethanesulfonyl}-1,3,8-triaza-spiro[4.5]dec-1-en-4-one] |
| 97% | Cc1cc(C(=O)N2CCC(C)(O)CC2)cc(C)c1CCS(=O)(=O)N1CCC2(CC1)N=C(c1ccc(F)c(OC(F)(F)F)c1)NC2=O [Compound 1335, 2-(4-fluoro-3-trifluoromethoxy-phenyl)-8-{2-[4-(4-hydroxy-4-methyl-piperidine-1-carbonyl)-2,6-dimethyl-phenyl]-ethanesulfonyl}-1,3,8-triaza-spiro[4.5]dec-1-en-4-one] |
| 133% | Cc1cc(C(=O)N2CCC(C)(O)CC2)cc(C)c1CCS(=O)(=O)N1CCC2(CC1)N=C(c1ccc3c(c1)OC(F)(F)O3)NC2=O [Compound 1336, 2-(2,2-difluoro-benzo[1,3]dioxol-5-yl)-8-{2-[4-(4-hydroxy-4-methyl-piperidine-1-carbonyl)-2,6-dimethyl-phenyl]-ethanesulfonyl}-1,3,8-triaza-spiro[4.5]dec-1-en-4-one] |
| 44% | Cc1cc(C(=O)N2CC(O)C2)cc(C)c1CCS(=O)(=O)N1CCC2(CC1)N=C(c1ccc(F)c(OC(F)(F)F)c1)NC2=O [Compound 1337, 2-(4-fluoro-3-trifluoromethoxy-phenyl)-8-{2-[4-(3-hydroxy-azetidine-1-carbonyl)-2,6-dimethyl-phenyl]-ethanesulfonyl}-1,3,8-triaza-spiro[4.5]dec-1-en-4-one] |
| 84% | Cc1cc(N(C)C(N)=O)cc(C)c1CCS(=O)(=O)N1CCC2(CC1)N=C(CCCCCc1ccccc1)NC2=O [Compound 1340, 1-(3,5-dimethyl-4-{2-[4-oxo-2-(5-phenyl-pentyl)-1,3,8-triaza-spiro[4.5]dec-1-ene-8-sulfonyl]-ethyl}-phenyl)-1-methyl-urea] |

| Structure (SMILES) | cAMP production activity (%) |
| --- | --- |
| Cc1cc(N(C)C(N)=O)cc(C)c1CCS(=O)(=O)N1CCC2(CC1)N=C(c1cccc(OCCCC(F)(F)F)c1)NC2=O [Compound 1338, 1-[3,5-dimethyl-4-(2-{4-oxo-2-[3-(4,4,4-trifluoro-butoxy)-phenyl]-1,3,8-triaza-spiro[4.5]dec-1-ene-8-sulfonyl}-ethyl)-phenyl]-1-methyl-urea] | 84% |
| Cc1cc(N(C)C(N)=O)cc(C)c1CCS(=O)(=O)N1CCC2(CC1)N=C(c1ccc(OCCCC(F)(F)F)cc1)NC2=O [Compound 1339, 1-[3,5-dimethyl-4-(2-{4-oxo-2-[4-(4,4,4-trifluoro-butoxy)-phenyl]-1,3,8-triaza-spiro[4.5]dec-1-ene-8-sulfonyl}-ethyl)-phenyl]-1-methyl-urea] | 86% |
